From patent US11078170B2 (Assembly Biosciences, Inc., priority 2017, dated 2021)

system: HBV viral production from HepAD38 cells; assay: Activity of test compounds on viral production from HepAD38 cells (viral load by qPCR of HBV core sequence in supernatant); type: cell-based; settings: Hepatitis B virus, 120 h, 5 days incubation, HBV DNA in supernatant by qPCR, top concentration 10 μM, read-out: Viral Load EC50 Activity range
Outline: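 EC50 and CC50 come from four-parameter fits of supernatant viral load and CellTiter-Glo viability, respectively. Viral load was measured by core-region TaqMan qPCR against HBV DNA standards and compared with DMSO controls. Tet-free HepAD38 cells (50,000/well, 2% FBS) were exposed to compound, highest 10 μM, for 5 days at 37° C.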

Compound | EC50 [nM]
CN1[C@@H](C(=O)Nc2ccc(F)c(Cl)c2)C[C@@H](c2cc(-c3cnn(CCO)c3)cs2)NS1(=O)=O [HBV-CSU-296-ISO-II, Cis-N-(3-chloro-4-fluorophenyl)-5-(4-(1-(2-hydroxyethyl)-1H-pyrazol-4-yl)thiophen-2-yl)-2-methyl-1,2,6-thiadiazinane-3-carboxamide 1,1-dioxide] | 1000 to 5000
Cc1cc([C@@H]2C[C@H](C(=O)Nc3ccc(F)c(Cl)c3)N(C)S(=O)(=O)N2)sc1-c1cnn(C)c1 [HBV-CSU-300-ISO-II, Cis-N-(3-Chloro-4-fluorophenyl)-5-(4-methyl-5-(1-methyl-1H-pyrazol-4-yl)thiophen-2-yl)-2-methyl-1,2,6-thiadiazinane-3-carboxamide 1,1-dioxide] | > 5000
CN1[C@H](C(=O)Nc2ccc(F)c(Cl)c2)C[C@H](c2cc(Cl)c(-c3cnn(C)c3)s2)NS1(=O)=O [HBV-CSU-302-ISO-I, Cis-N-(3-Chloro-4-fluorophenyl)-5-(4-chloro-5-(1-methyl-1H-pyrazol-4-yl)thiophen-2-yl)-2-methyl-1,2,6-thiadiazinane-3-carboxamide 1,1-dioxide] | < 1000
CN1[C@@H](C(=O)Nc2ccc(F)c(Cl)c2)C[C@@H](c2cc(Cl)c(-c3cnn(C)c3)s2)NS1(=O)=O [HBV-CSU-302-ISO-II, Cis-N-(3-Chloro-4-fluorophenyl)-5-(4-chloro-5-(1-methyl-1H-pyrazol-4-yl)thiophen-2-yl)-2-methyl-1,2,6-thiadiazinane-3-carboxamide 1,1-dioxide] | > 5000
Cc1sc([C@H]2C[C@@H](C(=O)Nc3ccc(F)c(Cl)c3)N(C)S(=O)(=O)N2)cc1-c1cnn(C)c1 [HBV-CSU-304-ISO-I, Cis-N-(3-Chloro-4-fluorophenyl)-2-methyl-5-(5-methyl-4-(1-methyl-1H-pyrazol-4-yl)thiophen-2-yl)-1,2,6-thiadiazinane-3-carboxamide 1,1-dioxide] | < 1000
Cc1sc([C@@H]2C[C@H](C(=O)Nc3ccc(F)c(Cl)c3)N(C)S(=O)(=O)N2)cc1-c1cnn(C)c1 [HBV-CSU-304-ISO-II, Cis-N-(3-Chloro-4-fluorophenyl)-2-methyl-5-(5-methyl-4-(1-methyl-1H-pyrazol-4-yl)thiophen-2-yl)-1,2,6-thiadiazinane-3-carboxamide 1,1-dioxide] | > 5000
CCc1sc([C@H]2C[C@@H](C(=O)Nc3ccc(F)c(Cl)c3)N(C)S(=O)(=O)N2)cc1-c1cnn(C)c1 [HBV-CSU-305-ISO-I, Cis-N-(3-Chloro-4-fluorophenyl)-5-(5-ethyl-4-(1-methyl-1H-pyrazol-4-yl)thiophen-2-yl)-2-methyl-1,2,6-thiadiazinane-3-carboxamide 1,1-dioxide] | < 1000
CCc1sc([C@@H]2C[C@H](C(=O)Nc3ccc(F)c(Cl)c3)N(C)S(=O)(=O)N2)cc1-c1cnn(C)c1 [HBV-CSU-305-ISO-II, Cis-N-(3-Chloro-4-fluorophenyl)-5-(5-ethyl-4-(1-methyl-1H-pyrazol-4-yl)thiophen-2-yl)-2-methyl-1,2,6-thiadiazinane-3-carboxamide 1,1-dioxide] | 1000 to 5000
CN1[C@H](C(=O)Nc2ccc(F)c(Cl)c2)C[C@H](c2cc(-c3cnn(C)c3)c(Cl)s2)NS1(=O)=O [HBV-CSU-306-ISO-I, Cis-5-(5-chloro-4-(1-methyl-1-pyrazol-4-yl)thiophen-2-yl)-N-(3-chloro-4-fluorophenyl)-2-methyl-1,2,6-thiadiazinane-3-carboxamide 1,1-dioxide] | < 1000
CN1[C@@H](C(=O)Nc2ccc(F)c(Cl)c2)C[C@@H](c2cc(-c3cnn(C)c3)c(Cl)s2)NS1(=O)=O [HBV-CSU-306-ISO-II, Cis-5-(5-chloro-4-(1-methyl-1-pyrazol-4-yl)thiophen-2-yl)-N-(3-chloro-4-fluorophenyl)-2-methyl-1,2,6-thiadiazinane-3-carboxamide 1,1-dioxide] | > 5000
Cc1c(-c2ccc([C@H]3C[C@@H](C(=O)Nc4ccc(F)c(Cl)c4)N(C)S(=O)(=O)N3)s2)cnn1C [HBV-CSU-312-ISO-I, Cis-N-(3-chloro-4-fluorophenyl)-5-(5-(1,5-dimethyl-1H-pyrazol-4-yl)thiophen-2-yl)-2-methyl-1,2,6-thiadiazinane-3-carboxamide 1,1-dioxide] | < 1000
Cc1c(-c2ccc([C@@H]3C[C@H](C(=O)Nc4ccc(F)c(Cl)c4)N(C)S(=O)(=O)N3)s2)cnn1C [HBV-CSU-312-ISO-II, Cis-N-(3-chloro-4-fluorophenyl)-5-(5-(1,5-dimethyl-1H-pyrazol-4-yl)thiophen-2-yl)-2-methyl-1,2,6-thiadiazinane-3-carboxamide 1,1-dioxide] | 1000 to 5000
Cc1nn(C)cc1-c1ccc([C@H]2C[C@@H](C(=O)Nc3ccc(F)c(Cl)c3)N(C)S(=O)(=O)N2)s1 [HBV-CSU-313-ISO-I, Cis-N-(3-chloro-4-fluorophenyl)-5-(5-(1,3-dimethyl-1H-pyrazol-4-yl)thiophen-2-yl)-2-methyl-1,2,6-thiadiazinane-3-carboxamide 1,1-dioxide] | < 1000
Cc1nn(C)cc1-c1ccc([C@@H]2C[C@H](C(=O)Nc3ccc(F)c(Cl)c3)N(C)S(=O)(=O)N2)s1 [HBV-CSU-313-ISO-II, Cis-N-(3-chloro-4-fluorophenyl)-5-(5-(1,3-dimethyl-1H-pyrazol-4-yl)thiophen-2-yl)-2-methyl-1,2,6-thiadiazinane-3-carboxamide 1,1-dioxide] | 1000 to 5000
Cc1nn(C)c(C)c1-c1ccc([C@H]2C[C@@H](C(=O)Nc3ccc(F)c(Cl)c3)N(C)S(=O)(=O)N2)s1 [HBV-CSU-314-ISO-I, Cis-N-(3-chloro-4-fluorophenyl)-2-methyl-5-(5-(1,3,5-trimethyl-1H-pyrazol-4-yl)thiophen-2-yl)-1,2,6-thiadiazinane-3-carboxamide 1,1-dioxide] | < 1000
Cc1nn(C)c(C)c1-c1ccc([C@@H]2C[C@H](C(=O)Nc3ccc(F)c(Cl)c3)N(C)S(=O)(=O)N2)s1 [HBV-CSU-314-ISO-II, Cis-N-(3-chloro-4-fluorophenyl)-2-methyl-5-(5-(1,3,5-trimethyl-1H-pyrazol-4-yl)thiophen-2-yl)-1,2,6-thiadiazinane-3-carboxamide 1,1-dioxide] | 1000 to 5000
Cc1c(-c2csc(C3CC(C(=O)Nc4ccc(F)c(Cl)c4)N(C)S(=O)(=O)N3)c2)cnn1C (stereo not drawn) [HBV-CSU-315, Cis-N-(3-chloro-4-fluorophenyl)-5-(4-(1,5-dimethyl-1H-pyrazol-4-yl)thiophen-2-yl)-2-methyl-1,2,6-thiadiazinane-3-carboxamide 1,1-dioxide] | < 1000
Cc1c(-c2csc([C@H]3C[C@@H](C(=O)Nc4ccc(F)c(Cl)c4)N(C)S(=O)(=O)N3)c2)cnn1C [HBV-CSU-315-ISO-I, Cis-N-(3-chloro-4-fluorophenyl)-5-(4-(1,5-dimethyl-1H-pyrazol-4-yl)thiophen-2-yl)-2-methyl-1,2,6-thiadiazinane-3-carboxamide 1,1-dioxide] | < 1000
Cc1nn(C)cc1-c1csc([C@H]2C[C@@H](C(=O)Nc3ccc(F)c(Cl)c3)N(C)S(=O)(=O)N2)c1 [HBV-CSU-316-ISO-I, Cis-N-(3-chloro-4-fluorophenyl)-5-(4-(1,3-dimethyl-1H-pyrazol-4-yl)thiophen-2-yl)-2-methyl-1,2,6-thiadiazinane-3-carboxamide 1,1-dioxide] | < 1000
